Measurements as given in the supplement of paper PMC11451515.

Test system: P12-Ichikawa
Experiment: cell viability relative to DMSO control; higher = less cytotoxic
Settings: 48 h
In short: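 Library compounds in DMSO were pin-dosed into 1536-well plates (5 μl) holding NOMO1 or SEM (500 cells/well) or P12-Ichikawa (1000 cells/well) leukemia cells, across an 11-point threefold series of 47 μM to 0.79 nM. Each cell line had been adapted for at least four passages in each medium. CellTiter-Glo One luminescence was read after 48 h at 37°C. Viability is the per-plate percentage relative to DMSO wells, with cell-free wells as background.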

[1] = HPLM + 10% dialyzed FBS, 0.000781 µM
[2] = HPLM + 10% dialyzed FBS, 0.00234 µM
[3] = HPLM + 10% dialyzed FBS, 0.00702 µM
[4] = HPLM + 10% dialyzed FBS, 0.0211 µM
[5] = HPLM + 10% dialyzed FBS, 0.0632 µM
[6] = HPLM + 10% dialyzed FBS, 0.19 µM
[7] = HPLM + 10% dialyzed FBS, 0.569 µM
[8] = HPLM + 10% dialyzed FBS, 1.71 µM
[9] = HPLM + 10% dialyzed FBS, 5.12 µM
[10] = HPLM + 10% dialyzed FBS, 15.4 µM
[11] = HPLM + 10% dialyzed FBS, 46.1 µM
[12] = RPMI 5 mM glucose + 10% FBS, 0.000781 µM
[13] = RPMI 5 mM glucose + 10% FBS, 0.00234 µM
[14] = RPMI 5 mM glucose + 10% FBS, 0.00702 µM
[15] = RPMI 5 mM glucose + 10% FBS, 0.0211 µM
[16] = RPMI 5 mM glucose + 10% FBS, 0.0632 µM
[17] = RPMI 5 mM glucose + 10% FBS, 0.19 µM
[18] = RPMI 5 mM glucose + 10% FBS, 0.569 µM
[19] = RPMI 5 mM glucose + 10% FBS, 1.71 µM
[20] = RPMI 5 mM glucose + 10% FBS, 5.12 µM
[21] = RPMI 5 mM glucose + 10% FBS, 15.4 µM
[22] = RPMI 5 mM glucose + 10% FBS, 46.1 µM
[23] = RPMI 5 mM glucose + 10% dialyzed FBS, 0.000781 µM
[24] = RPMI 5 mM glucose + 10% dialyzed FBS, 0.00234 µM
[25] = RPMI 5 mM glucose + 10% dialyzed FBS, 0.00702 µM
[26] = RPMI 5 mM glucose + 10% dialyzed FBS, 0.0211 µM
[27] = RPMI 5 mM glucose + 10% dialyzed FBS, 0.0632 µM
[28] = RPMI 5 mM glucose + 10% dialyzed FBS, 0.19 µM
[29] = RPMI 5 mM glucose + 10% dialyzed FBS, 0.569 µM
[30] = RPMI 5 mM glucose + 10% dialyzed FBS, 1.71 µM
[31] = RPMI 5 mM glucose + 10% dialyzed FBS, 5.12 µM
[32] = RPMI 5 mM glucose + 10% dialyzed FBS, 15.4 µM
[33] = RPMI 5 mM glucose + 10% dialyzed FBS, 46.1 µM

| SMILES | cell viability [1] [%] | cell viability [2] [%] | cell viability [3] [%] | cell viability [4] [%] | cell viability [5] [%] | cell viability [6] [%] | cell viability [7] [%] | cell viability [8] [%] | cell viability [9] [%] | cell viability [10] [%] | cell viability [11] [%] | cell viability [12] [%] | cell viability [13] [%] | cell viability [14] [%] | cell viability [15] [%] | cell viability [16] [%] | cell viability [17] [%] | cell viability [18] [%] | cell viability [19] [%] | cell viability [20] [%] | cell viability [21] [%] | cell viability [22] [%] | cell viability [23] [%] | cell viability [24] [%] | cell viability [25] [%] | cell viability [26] [%] | cell viability [27] [%] | cell viability [28] [%] | cell viability [29] [%] | cell viability [30] [%] | cell viability [31] [%] | cell viability [32] [%] | cell viability [33] [%] |
| --- | --- | --- | --- | --- | --- | --- | --- | --- | --- | --- | --- | --- | --- | --- | --- | --- | --- | --- | --- | --- | --- | --- | --- | --- | --- | --- | --- | --- | --- | --- | --- | --- | --- |
| NC(=O)Cc1cccc(C(=O)c2ccccc2)c1N | 101 | 103 | 103 | 92.6 | 110 | 111 | 103 | 106 | 97.7 | 98.6 | 95.6 | 100 | 96.6 | 102 | 86.9 | 106 | 94.3 | 97 | 96.2 | 99 | 85.3 | 82.9 | 102 | 101 | 101 | 85.2 | 96.1 | 98.3 | 101 | 99.3 | 101 | 87.7 | 85.2 |
| COc1ccc(CC2SC(=O)NC2=O)cc1C(=O)NCc1ccc(C(F)(F)F)cc1 (stereo not drawn) | 85.3 | 84.7 | 90.5 | 96 | 88.3 | 96.3 | 93.8 | 95 | 88.2 | 83.6 | 86.9 | 82.1 | 78.3 | 81 | 87 | 78.9 | 83.7 | 94.5 | 89.2 | 86.4 | 77.2 | 66.7 | 79.5 | 82.5 | 81.7 | 71.5 | 74.3 | 74.2 | 80.2 | 75.1 | 74.9 | 69.3 | 63.6 |
| CON(C)C(=O)N1\N=C(/S[C@]1(CCCN)C2=CC=CC=C2)C3=CC(=CC=C3F)F | 46 | 13.4 | 12.4 | 12.8 | 13 | 12.8 | 14.2 | 12.1 | 12.7 | 11.2 | 13.1 | 12 | 17.2 | 17.5 | 16.2 | 16.8 | 17.7 | 16.6 | 13.6 | 14.2 | 12.2 | 11.2 | 24.8 | 28 | 21.3 | 21.4 | 22.5 | 24.6 | 21 | 22.4 | 19.1 | 18.3 | 19.9 |
| NCC/1=C/NC(=S)N1[C@H]2CCC3=C(F)C=C(F)C=C3C2 | 127 | 114 | 114 | 126 | 123 | 121 | 119 | 121 | 113 | 111 | 92.5 | 134 | 125 | 124 | 120 | 129 | 132 | 139 | 127 | 121 | 116 | 92.5 | 124 | 117 | 128 | 126 | 120 | 120 | 119 | 119 | 117 | 110 | 72.7 |
| CCC1=C2CN3C(=O)\C4=C(/C=C3/C2=NC5=CC=C(O)C=C15)[C@@](O)(CC)C(=O)OC4 | 97 | 95 | 33.6 | 14.5 | 9.38 | 6.95 | 6.95 | 4.6 | 5.03 | 4.34 | 4.16 | 93.6 | 91.9 | 28.2 | 10.6 | 8.05 | 6.33 | 6.06 | 5.12 | 4.73 | 4.49 | 4.85 | 98.3 | 83.8 | 30.2 | 15.1 | 11 | 7.31 | 6.37 | 5.25 | 5.83 | 5.8 | 5 |
| CC(=O)O[C@@]12CO[C@@H]1C[C@H](O)[C@]3(C)[C@@H]2[C@H](OC(=O)C4=CC=CC=C4)[C@]5(O)C[C@H](O)/C(=C(/[C@@H](O)C3=O)C5(C)C)C | 97.5 | 106 | 72.1 | 115 | 114 | 117 | 120 | 120 | 98.1 | 36.6 | 13.7 | 100 | 110 | 69.7 | 113 | 116 | 119 | 122 | 113 | 88.6 | 28.7 | 7.33 | 100 | 114 | 77.5 | 117 | 113 | 112 | 121 | 119 | 104 | 43.9 | 18.5 |
| COC(=O)[C@@H]1CC2=CC(=O)CC[C@]2(C)[C@@]23O[C@@H]2C[C@@]2(C)[C@@H](CC[C@@]24CCC(=O)O4)[C@H]13 | 98.1 | 113 | 104 | 106 | 112 | 117 | 117 | 115 | 120 | 121 | 112 | 107 | 109 | 112 | 124 | 123 | 122 | 123 | 127 | 130 | 135 | 128 | 100 | 117 | 115 | 112 | 112 | 115 | 118 | 113 | 117 | 119 | 126 |
| CN(C)[C@H]\1[C@@H]2[C@@H](O)[C@H]3\C(=C(O)/[C@]2(O)C(=O)\C(=C1O)C(N)=O)C(=O)C4=C(C=CC=C4O)[C@@]3(C)O | – | – | – | – | – | – | – | – | – | – | – | 130 | 123 | 125 | 127 | 127 | 131 | 130 | 106 | 96.1 | 128 | 116 | – | – | – | – | – | – | – | – | – | – | – |
| Cc1n[nH]c2ccc(-c3cncc(OC[C@@H](N)Cc4c[nH]c5ccccc45)c3)cc12 | – | – | – | – | – | – | – | – | – | – | – | 108 | 114 | 100 | 98.9 | 88.5 | 70.2 | 80.3 | 35.5 | 17.8 | 2.32 | 1.05 | 107 | 119 | 105 | 108 | 96.9 | 74.8 | 64 | 38.5 | 27.1 | 2.44 | 1.33 |
| CC1(C)NC(=O)N(c2ccc([N+](=O)[O-])c(C(F)(F)F)c2)C1=O | 96.1 | 87.3 | 90.1 | 89.5 | 101 | 90.9 | 89.6 | 87.8 | 77.1 | 85.2 | 80 | 88.4 | 82.8 | 82.5 | 95.2 | 96.2 | 92 | 90.1 | 74.9 | 82.8 | 82.9 | 75.8 | 77.6 | 81 | 75.6 | 80 | 83.4 | 85.7 | 78.4 | 77.2 | 70.7 | 75 | 67.8 |
| O=C(N[C@H]1CN2CCC1CC2)c1ccc(Cl)cc1 | 99.2 | 107 | 104 | 110 | 110 | 116 | 114 | 114 | 116 | 109 | 99.2 | 110 | 106 | 114 | 103 | 108 | 111 | 114 | 110 | 106 | 101 | 99.9 | 98.2 | 100 | 104 | 114 | 118 | 116 | 113 | 114 | 102 | 104 | 92.4 |
| OC[C@H]1O[C@H](C[C@@H]1O)N2\C=C(\I)C(=O)NC2=O | 113 | 114 | 120 | 118 | 115 | 124 | 119 | 115 | 98.2 | 64.4 | 58.3 | 110 | 114 | 124 | 121 | 129 | 128 | 132 | 123 | 115 | 106 | 96.7 | 118 | 114 | 108 | 119 | 114 | 131 | 127 | 115 | 114 | 114 | 110 |
| Oc1ccc(C2CNCCc3c2cc(O)c(O)c3Cl)cc1 (stereo not drawn) | 92.6 | 92.3 | 86.9 | 97.7 | 92.7 | 98.5 | 92.4 | 95.7 | 96.1 | 100 | 99.4 | 87 | 98.4 | 95.8 | 96.8 | 86.5 | 98.8 | 90.3 | 98 | 96.1 | 103 | 101 | 90.3 | 93.3 | 80.2 | 86.9 | 84.7 | 96.9 | 86.1 | 88.5 | 94.1 | 90 | 92.7 |
| CN1C(=O)\C(=C/C2=C1N=C(NC3CCOCC3)N=C2)OC4=C(F)C=C(F)C=C4 | 92.5 | 96.2 | 95.4 | 95.3 | 96.9 | 90.2 | 87.5 | 93.2 | 82.6 | 87.2 | 50.7 | 92.3 | 90.3 | 93.5 | 95.2 | 96.1 | 96.6 | 91.8 | 90 | 90.5 | 90.4 | 39.4 | 100 | 94.7 | 90.6 | 87.1 | 96.3 | 99.1 | 93.5 | 86.7 | 79.3 | 81.8 | 35.9 |
| NC(=O)c1c(OCc2c(F)cc(Br)cc2F)nsc1NC(=O)NCCCCN1CCCC1 | 107 | 112 | 103 | 104 | 99.9 | 102 | 98.8 | 100 | 89.5 | 45.2 | 43.8 | – | – | – | – | – | – | – | – | – | – | – | 123 | 126 | 116 | 111 | 108 | 111 | 111 | 96.7 | 99.6 | 46.9 | 68.1 |
| COc1cc([S+](C)(=O)[O-])ccc1Nc1nc2ccc(-c3ccc(NC(=O)[C@H](C)c4ccc(F)cc4)cc3)cn2n1 | 109 | 106 | 108 | 110 | 120 | 117 | 120 | 49 | 56.4 | 61.4 | 65 | 103 | 116 | 118 | 108 | 113 | 117 | 114 | 37.2 | 55.1 | 56.4 | 57.1 | – | – | – | – | – | – | – | – | – | – | – |
